This note sets out measurements from paper PMC7756582, “Prodrugs of γ‐Alkyl‐Modified Nucleoside Triphosphates: Improved Inhibition of HIV Reverse Transcriptase” (Angewandte Chemie (International Ed. in English), 2020).

A short description of series [1]: Chemical hydrolysis in aqueous phosphate buffer (PBS, pH 7.3). Type of series: physicochemical. The settings on record: aqueous 25 mM phosphate buffer, pH 7.3, 37 °C; removal of AB group; n.h. = no hydrolysis observed through cleavage of AB-mask. The protocol: γ‐(AB,alkyl)‐NTP prodrugs 6 and γ‐alkyl‐NTPs 7 were incubated in aqueous phosphate buffer (PBS, 25 mM, pH 7.3), or were exposed to pig liver esterase (PLE) in phosphate buffer (PBS) and to human CD4^+ T‐lymphocyte cell extracts to study their stability and the product distribution. The hydrolysis mixtures were analyzed by means of analytical rp‐18‐HPLC. The calculated half‐lives of prodrugs 6 (Table 1, t 1/2) reflect the removal of the bioreversible AB group to yield γ‐alkyl‐NTPs 7. Possible hydrolysis pathways and products are summarized in Scheme 4.
As hydrolysis products, a predominant formation of γ‐alkyl‐d4TTPs 7 and a very small amount of d4TDP […] was detected (approximately 3 %). After consumption of the starting material, no further increase of d4TDP concentration was observed. This supports the hypothesis that only the double‐γ‐esterified d4TTP prodrugs 6 were prone to a bond breakage between the γ‐ and β‐phosphate. […] In contrast to previous studies with TriPPPro‐NTPs 5 containing a second cleavable mask (first generation NTP prodrugs),[ ^23 , ^24 , ^25 ] no d4TTP was detected in these studies using 6 or 7. A side reaction occurred during the studies using compounds 7 that led to the formation of thymine by the cleavage of the glycosidic bond as reported before.[ ^19 , ^22 ]
(§1) ProLab 300 from Schott Co.. Thermomixer: Eppendorf Thermomixer 5436 and CellMedia Thermoschüttler basic were used. […]
Chemical hydrolysis of prodrugs of γ-(AB,alkyl) d4TTP 6 as well as the γ-alkyl-NTPs 7,15:
Stock solutions (50mM in DMSO-d6) of compounds 6,7 were prepared. After dilution of 11 µL stock solution with 100 µL milliQ water and 189 µL DMSO-d6 to 1.9mM hydrolysis solutions the reaction was started by addition of 300 µL phosphate buffer saline (PBS, 50mM, pH 7.3). The solution was incubated at 37 C in a thermomixer. An initial aliquot (25 µL) was taken directly and analyzed by analytical HPLC at 265-266 nm. Further aliquots were taken for monitoring the kinetic hydrolysis. The exponential decay curves (pseudo-first order) based on absolute integral values were calculated with commercially available software (OriginPro 9.0G) and yielded the half-lives t1/2 of the prodrugs via one determination. […]
The calculation of t1/2 was performed analogously to that for the chemical hydrolysis studies.
(§2) Preparation of cell extracts: Human CD4+ T-lymphocyte CEM cells were grown in RPMI-1640-based cell culture medium to a final density of ~3·10^6 cells/ml. Then, cells were centrifuged for 10 min at 1,250 rpm at 4 °C, washed twice with cold PBS, and the pellet was re-suspended at 10^8 cells/ml and sonicated (Hielscher Ultrasound Techn., 100% amplitude, 3·times for 10 sec) to destroy cell integrity. The resulting cell suspension was then centrifuged at 10,000 rpm to remove cell debris, and the supernatant divided in aliquots before being frozen at -80 C and used.
(1 picture or pasted object on this page, not shown here)

The next series deals with HIV-1(IIIB). As to the kind of experiment: Anti-HIV activity assay, HIV-1-infected wild-type CEM/0 cell cultures. The series is classed as cell-based. The settings on record: Human immunodeficiency virus 1, IIIB, CCRF-CEM, read-out: EC50 CEM/0 HIV-1. As to the method:
(§3) γ‐(AB,alkyl)‐d4TTP prodrugs 6 and the γ‐alkyl‐d4TTPs 7 were evaluated for their ability to inhibit the replication of HIV in HIV‐1‐ or HIV‐2‐infected wild‐type CEM/0 as well as mutant thymidine‐kinase‐deficient CEM cell cultures (CEM/TK^−). For comparison, two TriPPPro derivatives 5 were also included in this assay.
(§4) Anti-HIV activity assay: Inhibition of HIV-1(IIIB)- and HIV-2(ROD)-induced cytopathicity in wild-type CEM/0 and thymidine kinase-deficient CEM/TK- cell cultures was measured in microtiter 96-well plates containing ~3·105 CEM cells/mL infected with 100 CCID50 of HIV per milliliter and containing appropriate dilutions of the test compounds. After 4−5 days of incubation at 37 °C in a CO2-controlled humidified atmosphere, CEM giant (syncytium) cell formation was examined microscopically. […]
(§5) was defined as the compound concentration required to inhibit HIV-induced giant cell formation by 50%. […]
(§6) The result was visualized by fluorescence imaging. […]
as §6

The nature of series [2]: Cytotoxicity: inhibition of CD4+ T-cell (CEM) proliferation. The series is classed as cell-based. Conditions: human, CEM/0 cells (CD4+ T-cells), 50 % cytostatic concentration, mean±SD, n=2-3.
Series [3] deals with HIV-2(ROD). Description: Anti-HIV activity assay, HIV-2-infected wild-type CEM/0 cell cultures. Type of series: cell-based. The settings on record: Human immunodeficiency virus 2, CCRF-CEM, read-out: EC50 CEM/0 HIV-2. As to the method:
as §3, §4, §5, §6, §6

Series [4] relates to HIV-2(ROD). As to the kind of experiment: Anti-HIV activity assay, HIV-2-infected thymidine-kinase-deficient CEM/TK- cell cultures. Type of series: cell-based. The settings on record: Human immunodeficiency virus 2, CEM-TK(-), read-out: EC50 CEM/TK− HIV-2, thymidine-kinase-deficient CEM/TK− cells, HIV-2; mean±SD, n=2-3. As to the method:
as §3, §4, §5, §6, §6

The target of series [5] is T1, HIV reverse transcriptase (RT) (Human immunodeficiency virus type 1 group M subtype B, UniProt P03366).
T1 construct: reverse transcriptase (RT; an HIV‐encoded RNA‐dependent DNA polymerase); purchased Roboklon
As to the kind of experiment: Primer extension assay with HIV-RT. The settings on record: incubation 10, 20, 40 and 60 min; conversion of primer to n+1 product. Type of series: biochemical, HIV-1. As to the method:
Primer-extension reactions:
HIV-RT and human DNA polymerase β and γ were obtained from Roboklon, human DNA polymerase α was obtained from Chimerx.
The primers and templates were purchased from Life Technologies and Microsynth. The fluorescent labeled primer was purchased
from Metabion and Microsynth. The gels were prepared with the size of 450mm×200mm×0.4mm according to the electrophoresis
5’-FITC and 5’-Cy3 labeled Primer-sequence:
The primer extension assays were performed under the following conditions:
FITC and Cy3 labeled primer extension assay:
1) Hybridization: After 5 min incubation at 95 °C in 20 mM Tris-HCl (pH 7.6) and 50 mM NaCl, the hybridization/annealing of the
primer to the template strand was achieved by a cooling phase from 95 °C to […] lasted more than 2 hours. […]
The assays were separated using a denaturating PAGE (15%). The result was visualized by fluorescence imaging. […]
as §6, §6

Series [6] can be described thus: Enzyme-catalyzed hydrolysis in human CD4+ T-lymphocyte CEM cell extracts. The series is classed as in vitro ADME. Conditions: CEM/0 cell extracts (CD4+ T-lymphocytes); human CD4+ T-lymphocyte CEM cell extracts, 37 °C; read-out: CEM/0 cell extracts t 1/2 (converted). As to the method:
The stability of prodrugs 6 and the γ‐alkyl‐NTPs 7 was further investigated in human CD4 ^+ T‐lymphocyte CEM cell extracts. […] Thus, an enzymatic cleavage reaction took place. Half‐lives as low as 0.4 h (6 az) to 5.2 h (6 dz) were determined. […] This is in accordance to our previous results for the DiPPro‐[ ^17 , ^18 ] or the TriPPPro‐compounds 5.[ ^22 , ^23 ] In all cases we observed the predominant formation of γ‐alkyl‐d4TTPs 7 and d4TDP 2 d in very low concentration (Figure 2 B) but no NTP formation was detected, in contrast to the studies using the previously described TriPPPro compounds 5.[ ^23 , ^24 ] However, the difference to the compounds bearing long lipophilic acyl groups was not very pronounced (2‐ to 3‐fold). In the case of γ‐(AB‐C4,alkyl‐C18)‐d4TTP 6 cz, γ‐C18‐d4TTP 7 z was detected as the main product. After 8 h incubation, the ratio of γ‐C18‐d4TTP 7 z and d4TDP 2 d was 5:1. This was in sharp contrast to the studies performed with TriPPPro compounds 5.[ ^23 , ^24 ] There, it was almost impossible to detect significant concentrations of d4TTP due to its fast dephosphorylation to form first d4TDP and finally d4TMP 2 m. […] The formation of thymine or d4TTP 2 t from γ‐C18‐d4TTP 7 z was not detected (Supporting Information, Figure SI2).
as §1
Enzyme-catalyzed hydrolysis of γ-(AB,alkyl)-d4TTPs 6, γ-alkyl-d4TTPs 7,15 and TriPPPros 5 in CEM cell extracts:
18 µL of the appropriate 50 mM DMSO-d6 stock solution was diluted to 6.0 mM hydrolysis solution by addition of 132.0 µL DMSO-d6.
7-10 different samples including 10 µL water and 10 µL hydrolysis solution were prepared in 2 mL Eppendorf® vials. The reaction was started by addition of 50 µL human CEM cell extract and the mixture was incubated at 37 °C for different time periods. The reactions were stopped by addition of 150 μL MeOH. The solution was kept on ice for 5 min followed by centrifugation for 5 min (13000 rpm).
The supernatants were filtered (Chromafil® RC-20/15 MS, 0.2 μm) and stored in liquid nitrogen. When testing, the samples were defrosted and injection volume with 80 μL was used for HPLC analysis. The calculation of t1/2 was performed analogously to that for the chemical hydrolysis studies.
as §2

Structures are written as SMILES. Where only a bound is given, the exact number is not on record here.

As to `CCCCCCCCCCCOP(=O)(O)OP(=O)(O)OP(=O)(O)OCC1C=CC(n2cc(C)c(=O)[nH]c2=O)O1` (stereo not shown) [7 x, γ‐C11‐d4TTP], the “PBS pH 7.3 t 1/2” value in series [1] was “n.h.^[c]”. Also, the results for the EC50 in the series with HIV-1(IIIB), in the series with HIV-2(ROD) [3] and in the series on HIV-2(ROD) [4] were 0.89 ± 0.28 µM, 0.26 ± 0.083 µM and 16 ± 5 µM, respectively. For the same compound, in series [2], the 50% cytotoxic concentration (CC50) turned out to be 78 ± 10 µM. The “comparison of substrate properties for HIV-RT” value in series [5] is recorded as “better substrates”. Further, the half-life at 0.86 mM in series [6] is over 30 h.

What is called CC50 is the concentration that lowers cell viability or growth by half.
